Experimental data from patent publication US20030099600A1, “Metalloproteinase inhibitors for the treatment of respiratory diseases” (priority 2000, published 2003).

What was measured:
MMP-1 = experiment: Lung tissue study: MMP-1 released by human lung tissue in vitro (ELISA); format: cell-based; conditions: 24 hours; for MMP-1 % of IL-1: 100 U/ml IL-1 stimulated; for MMP-1 % of control: unstimulated fragments
Description: (§1) This study was done to assess the effects of doxycycline on the release of matrix metalloproteinases by human lung tissue in vitro.
(§2) On the following day, 2-3 fragments (total weight 50 mg) were placed in 0.8 ml of culture buffer and 0.1 ml of doxycycline (to give a final concentration of 10^−4-10^−8M) or a buffer control was added.
(§3) After one hours incubation at 37° C., the fragments were treated with either 0.1 ml of either a buffer control (unstimulated fragments) or 1000 U/ml interleukin-1 (final concentration of 100 U/ml IL-1). The fragments were then incubated for 24 hours and the supernatant recovered; the tissue was weighed and stored at −70° C.
(§4) The MMPs and TIMPs released into the supematant were measured using commercial ELISAs (Amersham); values were expressed as ng of MMP/TIMP per mg of lung tissue.
MMP-1 levels are analysed by Elisa plates (Code No. RPN2610) from Amersham Pharmacia Biotech UK Limited, Amersham Place, Little Chalfont, BUCKS HP7 9NA.
(§5) The Elisa is run as per manufacturer's instructions.
This Elisa is specific for total MMP-1; recognising pro MMP-1, active MMP-1 and MMP-1/TIMP-1 complex.

MMP-2 = experiment: Lung tissue study: MMP-2 released by human lung tissue in vitro (ELISA); format: cell-based; conditions: 24 hours; for MMP-2 % of IL-1: 100 U/ml IL-1 stimulated; for MMP-2 % of control: unstimulated fragments
Description: as §1, §2, §3, §4
MMP-2 levels are analysed by Elisa plates (Code No. RPN2617) from Amersham Pharmecia Biotech UK Limited, Amersham Place, Little Chalfont, BUCKS HP7 9NA.
as §5
This Elisa is specific for proMMP-2; recognising free proMMP-2 and MMP-2 complexed to TIMP-2, but not the active form of MMP-2. No cross-reactivity with MMP-1, 3, 7, 8, 9 and MT1-MMP.

MMP-9 [1] = experiment: Lung tissue study: MMP-9 released by human lung tissue in vitro (ELISA); format: cell-based; conditions: 24 hours; for MMP-9 % of IL-1: 100 U/ml IL-1 stimulated; for MMP-9 % of control: unstimulated fragments
Description: as §1, §2, §3, §4

TIMP-1 [2] = experiment: Lung tissue study: TIMP-1 released by human lung tissue in vitro (ELISA); format: cell-based; conditions: 24 hours; for TIMP-1 % of IL-1: 100 U/ml IL-1 stimulated; for TIMP-1 % of control: unstimulated fragments
Description: as §1, §2, §3, §4

MMP-9 [3] = experiment: Human study in COPD subjects: MMP-9 levels (ELISA); format: in vivo; conditions: for MMP-9 % of control: capsules 50, 100, 200 mg ascending, 3 days each, 4-day wash out
Description: (§6) This was an open-label, ascending dose, cross-over study. Suitable subjects with chronic obstructive pulmonary disease (COPD) had their respiratory function assessed at baseline and provided sputum and blood for MMP and doxycycline levels. They then received 50 mg, 100 mg and 200 mg of doxycycline capsules for a period of 3 days in ascending order. At the end of each treatment period a further assessment of respiratory function was performed, and a sputum and blood sample was analysed for MMP, TIMP-1 and doxycycline levels. There was a 4-day wash out period between each treatment period of the study. The MMPs and TIMPs released were measured using commercial ELISAs as detailed above for the lung tissue study.

TIMP-1 [4] = experiment: Human study in COPD subjects: TIMP-1 levels (ELISA); format: in vivo; conditions: for TIMP-1 % of control: capsules 50, 100, 200 mg ascending, 3 days each, 4-day wash out
Description: as §6

[5] = route of administration that avoids first-pass metabolism; cited from earlier work
[6] = oral route; cited from earlier work
[7] = Mean of study days 4, 8, 11, 15, 18, COPD subjects

## C[C@H]1c2cccc(O)c2C(=O)C2=C(O)[C@]3(O)C(=O)C(C(N)=O)=C(O)[C@@H](N(C)C)[C@@H]3[C@@H](O)[C@@H]21 [doxycycline]
MMP-1; 10^-4 M
  MMP-1 % of IL-1: 14.75%
  MMP-1 % of control: 24.05%
MMP-1; 10^-6 M
  MMP-1 % of IL-1: 61.47%
  MMP-1 % of control: 84.10%
MMP-1; 10^-8 M
  MMP-1 % of IL-1: 51.87%
  MMP-1 % of control: 76.50%
MMP-2; 10^-4 M
  MMP-2 % of IL-1: 49.23%
  MMP-2 % of control: 34.34%
MMP-2; 10^-6 M
  MMP-2 % of IL-1: 86.86%
  MMP-2 % of control: 219.33%
MMP-2; 10^-8 M
  MMP-2 % of IL-1: 95.75%
  MMP-2 % of control: 101.47%
MMP-9 [1]; 10^-4 M
  MMP-9 % of IL-1: 51.04%
  MMP-9 % of control: 39.36%
MMP-9 [1]; 10^-6 M
  MMP-9 % of IL-1: 99.29%
  MMP-9 % of control: 116.84%
MMP-9 [1]; 10^-8 M
  MMP-9 % of IL-1: 127.04%
  MMP-9 % of control: 113.57%
TIMP-1 [2]; 10^-4 M
  TIMP-1 % of IL-1: 75.47%
  TIMP-1 % of control: 44.49%
TIMP-1 [2]; 10^-6 M
  TIMP-1 % of IL-1: 508.92%
  TIMP-1 % of control: 182.40%
TIMP-1 [2]; 10^-8 M
  TIMP-1 % of IL-1: 461.92%
  TIMP-1 % of control: 172.02%
MMP-9 [3]; Day of Study 4, COPD subjects
  MMP-9 % of control: 39.43%
MMP-9 [3]; Day of Study 8, COPD subjects
  MMP-9 % of control: 12.85%
MMP-9 [3]; Day of Study 11, COPD subjects
  MMP-9 % of control: 29.17%
MMP-9 [3]; Day of Study 15, COPD subjects
  MMP-9 % of control: 22.41%
MMP-9 [3]; Day of Study 18, COPD subjects
  MMP-9 % of control: 29.03%
MMP-9 [3]; [7]
  MMP-9 % of control, Mean: 26.58%
MMP-9 [3]; human patient study
  reduction in MMP-9 activity: 73%
TIMP-1 [4]; Day of Study 4, COPD subjects
  TIMP-1 % of control: 116.24%
TIMP-1 [4]; Day of Study 15, COPD subjects
  TIMP-1 % of control: 974.24%
TIMP-1 [4]; [7]
  TIMP-1 % of control, Mean: 978.67%
TIMP-1 [4]; human patient study
  increase in TIMP-1: 10 fold
TIMP-1 [4]; repeated dosing at 100 mg once daily
  upregulation of TIMP-1 in COPD sputum, % of untreated levels: about 1000%
[5]
  lung concentration relative to the level in plasma: up to 10 times
[6]
  protein binding: very highly protein-bound
